In patent publication US8945540B2, “Compositions for enhancing the antibacterial activity of myeloperoxidase and methods of use thereof” (Exoxemis, Inc., priority 2008, dated 2015):
Like-named read-outs stand apart in the source and are kept apart here. Where a SMILES comes first, the peptide text is derived from it.

What was measured:
[1] = system: Staphylococcus aureus; assay: Microbicidal activity of the myeloperoxidase system (p-MPO, glucose oxidase, glucose) with amino acids in the presence of blood, CFU plate counts; synergy determination from these CFU; format: cell-based; settings: for Average Viability CFU/ml 50 min / Log Reduction 50 min: single amino acid 2.5 mM, MPO 4.7 U/ml, GO 4.2 U/ml
Procedure: Bacterial suspensions, specifically Staphylococcus aureus in this example, were prepared by the shake flask method to achieve late log to early stationary phase growth. Bacteria were grown 24 hours in trypticase soy broth (TSB) at 35° C. The cultures were centrifuged at 4,000 rpm for 10 minutes and the supernatants removed. The pellet was collected and washed twice with sterile 0.9% normal saline (NS). The washed microorganisms were suspended and diluted with normal saline to a 3 McFarland standard, i.e., approximately 10^9 bacteria colony forming units (CFU) per mL. Actual colony counts are confirmed by serial dilutions (10^−1 to 10^−5 or 10^−6) plated on TSA and incubated overnight at 35° C. To obtain an approximate final working target inoculum of 10^7 CFU/mL, 15 microliters of organisms per mL of final reaction mixture are used.
Glucose oxidase (GO) from Aspergillus Niger was purchased from Biozyme, Inc., UK, Cat #GO3A, 270 U/mg). Porcine Myeloperoxidase (p-MPO) (Exoxemis, Inc., Little Rock, Ark. U.S.A., 375 U/mg). Sterile stock solutions of D-glucose and sodium chloride were prepared and used at a final concentration of 150 mM each. L-Lysine hydrochloride (Spectrum Chemical Cat #L1142) was prepared as a 100 mM stock solution. Catalase (Sigma, Cat #C-40) was prepared as a 1% stock solution in sterile 0.9% normal saline. Blood was collected by venipuncture and used as whole blood within the same day.
Staphylococcus aureus were used to give a final target concentration of 2-3×10^7 CFU (7.4 log 10) per mL and venous whole blood was used to give a final concentration of 3%. Glucose was added to the reaction mixtures to a final concentration of 150 mM, which initiated the microbicidal reaction. The final volume of the reaction mixtures was 1 mL. The reactions were allowed to run from 30 minutes to 2 hours, as needed, at room temperature or at 37° C. in a dry bath. At the specified time points the reaction mixtures were treated with 100 microliters of a catalase solution, containing a minimum of 100 units/μL, to consume remaining peroxide and terminate the oxidative killing. Serial dilution plate counts were performed from the contents of each vial in sterile saline and inoculated onto trypticase soy agar (TSA) for quantitative culture. Plates were then incubated at 37° C. and counts taken at 24 hours. […] The results are shown in Table 1, as the average of 2 replicates.
The amino acids alone, in the absence of MPO were tested to rule out their microbicidal activity. The results are shown in Table 2 to Table 6, as the average of 2 replicates.
The amino acid analogues alone, in the absence of MPO, were tested to rule out their microbicidal activity. […]
The effect of two-way combinations of individual amino acids with L-isoleucine, as potential enhancing agents, for MPO microbicidal action in the presence of blood, was therefore examined by following the procedure of Example 5.
The Actual CFU observed for the pair is then divided by the Predicted CFU and multiplied by 100 to calculate the % of Predicted value. This value is then to be compared to the threshold value, discussed in the next section, to determine whether the pair are synergistic, antagonistic, or additive.
Calculation of appropriate threshold values for determination of synergism and antagonism was based upon the variability of replicated CFU survivor measures.

[2] = system: Staphylococcus aureus; assay: Control: microbicidal activity of the amino acid or analogue alone (no glucose, MPO, glucose oxidase) in the presence of blood; format: cell-based; settings: for log reduction at 5000 µM: Staphylococcus aureus, 1 h, read-out: Log Reduction 60 min
Description: As a control to determine the microbicidal activity of the amino acids alone, the foregoing procedure was followed without replication, except in the absence of glucose, MPO, and glucose oxidase.

[3] = Table 7, amino acid analogue 5 mM, MPO 38 U/ml, GO 33.3 U/ml, blood
[4] = amino acid analogue alone 5 mM, MPO 0, GO 0, no glucose, blood
[5] = MPO 100 μg/mL, AA 20 mM, 30 min
[6] = MPO 100 μg/mL, AA 20 mM, 60 min
[7] = Table 2, amino acid 5 mM (none: 0 mM), MPO 38 U/ml, GO 33.3 U/ml, blood
[8] = Table 10, in the presence of blood, 50 min
[9] = Table 13, in the presence of blood, 50 min
[10] = amino acid alone 5 mM, MPO 0, GO 0, no glucose, blood, without replication
[11] = Table 4, amino acid 5 mM (none: 0 mM), MPO 38 U/ml, GO 33.3 U/ml, blood
[12] = Table 3, amino acid 5 mM (none: 0 mM), MPO 38 U/ml, GO 33.3 U/ml, blood
[13] = Table 14, in the presence of blood, 50 min

Compound	Log 10 (CFU + 1) Survivors ([1]; MPO 25 μg/mL, AA 5 mM, 30 min)	Log 10 (CFU + 1) Survivors ([1]; MPO 25 μg/mL, AA 5 mM, 60 min)	Log 10 (CFU + 1) Survivors ([1]; MPO 25 μg/mL, AA […], 30 min)	Log 10 (CFU + 1) Survivors ([1]; MPO 25 μg/mL, AA […], 60 min)	Log 10 (CFU + 1) Survivors ([1]; MPO 100 μg/mL, AA 5 mM, 30 min)	Log 10 (CFU + 1) Survivors ([1]; MPO 100 μg/mL, AA 5 mM, 60 min)	Log 10 (CFU + 1) Survivors [1, 5]	Log 10 (CFU + 1) Survivors [1, 6]	Average Viability CFU/ml 60 min [1, 7] [CFU/ml]	Log 10 (CFU + 1) Survivors 60 min [1, 7]	Log Reduction 60 min [1, 7]	Average Viability CFU/ml 50 min [1, 8] [CFU/ml]	Log Reduction 50 min [1, 8]	log reduction at 5000 µM [2, 10]	Average Viability CFU/ml 60 min [2, 10] [CFU/ml]	also measured
CCOC(=O)C(C)N (stereo not shown) [Ethyl 2-aminopropanoate]	–	–	–	–	–	–	–	–	–	–	–	–	–	–	–	Average Viability CFU/ml 60 min [1, 3]: 0 CFU/ml; Log Reduction 60 min [1, 3]: 7.4; log reduction at 5000 µM [2, 4]: 0; Average Viability CFU/ml 60 min [2, 4]: 23200000 CFU/ml
CCOC(=O)CC(C)N (stereo not shown) [Ethyl 3-aminobutyrate]	–	–	–	–	–	–	–	–	–	–	–	–	–	–	–	Average Viability CFU/ml 60 min [1, 3]: 0 CFU/ml; Log Reduction 60 min [1, 3]: 7.4; log reduction at 5000 µM [2, 4]: 0; Average Viability CFU/ml 60 min [2, 4]: 20900000 CFU/ml
COC(=O)CN.Cl [Glycine methyl ester hydrochloride]	–	–	–	–	–	–	–	–	–	–	–	–	–	–	–	Average Viability CFU/ml 60 min [1, 3]: 0 CFU/ml; Log Reduction 60 min [1, 3]: 7.4; log reduction at 5000 µM [2]: 0; Average Viability CFU/ml 60 min [2, 4]: 21100000 CFU/ml
NCC(=O)O [Glycine]	7.2	6.8	7.3	6.9	6.0	0.0	7.0	0.0	0	0.0	7.4	9100	3.4	0	25300000	Average Viability CFU/ml 50 min [1, 9]: 10050 CFU/ml; Log Reduction 50 min [1, 9]: 3.4; Average Viability CFU/ml 50 min ([1]; blood): 7050 CFU/ml; Log Reduction 50 min ([1]; blood): 3.5; CFU survivors, amino acid acting separately ([1]; standard conditions of Example 5 (2.5 μmol/mL; MPO 4.7 U/mL; GO 4.2 U/mL)): 9300 CFU
O=CC(=O)O [Glyoxylic acid]	–	–	–	–	–	–	–	–	–	–	–	–	–	0.1	22200000	Average Viability CFU/ml 60 min [1, 11]: 610000 CFU/ml; Log Reduction 60 min [1, 11]: 1.6
O=C(O)CNC(=O)c1ccccc1 [Hippuric acid]	7.3	5.9	6.7	5.8	7.3	5.9	6.8	5.0	–	–	–	–	–	0	19700000	Average Viability CFU/ml 60 min [1, 12]: 865000 CFU/ml; Log 10 (CFU + 1) Survivors 60 min [1, 12]: 5.9; Log Reduction 60 min [1, 12]: 1.4
COC(=O)[C@H](C)N [L-Ala methyl ester, L-Alanine methyl ester]	7.3	0.0	7.3	0.0	0.0	0.0	0.0	0.0	–	–	–	7250000	0.5	0	24300000	Average Viability CFU/ml 60 min [1, 11]: 0 CFU/ml; Log Reduction 60 min [1, 11]: 7.4
C[C@H](N)C(=O)N[C@@H](C)C(=O)O [L-Ala-L-ala] (H-Ala-Ala-OH)	–	–	–	–	–	–	–	–	–	–	–	–	–	–	26100000	Average Viability CFU/ml 60 min [1, 11]: 238500 CFU/ml; Log Reduction 60 min [1, 11]: 2.0; Log Reduction 60 min [2, 10]: 0.0
N=C(N)NCCC[C@H](N)C(=O)O [L-Arginine]	–	–	–	–	–	–	–	–	5450000	6.7	0.6	–	–	–	23600000	enhancement of MPO microbicidal activity (in words) ([1]; amino acid 5 mM, MPO 38 U/ml, GO 33.3 U/ml, blood): essentially inactive; log reduction at 5000 µM [2]: 0
NC(=O)C[C@H](N)C(=O)O [L-Asparagine]	–	–	–	–	–	–	–	–	–	–	–	–	–	0	21800000	Average Viability CFU/ml 60 min [1, 12]: 5950000 CFU/ml; Log 10 (CFU + 1) Survivors 60 min [1, 12]: 6.8; Log Reduction 60 min [1, 12]: 0.6
N[C@@H](CC(=O)O)C(=O)O [L-Aspartic acid]	7.1	7.0	7.0	6.9	7.0	5.8	7.0	6.8	–	–	–	6900000	0.6	0.1	18600000	Average Viability CFU/ml 60 min [1, 12]: 620000 CFU/ml; Log 10 (CFU + 1) Survivors 60 min [1, 12]: 5.8; Log Reduction 60 min [1, 12]: 1.5; Average Viability CFU/ml 50 min [1, 9]: 4700000 CFU/ml; Log Reduction 50 min [1, 9]: 0.7
N[C@@H](CS)C(=O)O [L-Cysteine]	–	–	–	–	–	–	–	–	17400000	7.2	0.1	–	–	0	22400000	–
N[C@@H](CCC(=O)O)C(=O)O [L-Glutamic acid]	7.1	7.0	7.3	6.7	6.9	2.8	7.3	6.0	236	2.4	5.0	10850000	0.4	–	23700000	Average Viability CFU/ml 50 min [1, 9]: 11800000 CFU/ml; Log Reduction 50 min [1, 9]: 0.3; Average Viability CFU/ml 50 min [1, 13]: 13700000 CFU/ml; Log Reduction 50 min [1, 13]: 0.3; log reduction at 5000 µM [2]: 0
NC(=O)CC[C@H](N)C(=O)O [L-Glutamine]	7.3	7.1	6.8	7.0	7.2	0.0	7.0	5.2	286	2.5	4.9	14350000	0.2	0	24100000	Average Viability CFU/ml 50 min [1, 9]: 12550000 CFU/ml; Log Reduction 50 min [1, 9]: 0.3
